A word on the EC50: it is the concentration needed to bring the measured effect to its halfway point.

Sequence of human DP2 (Q9Y5Y4 whole entry): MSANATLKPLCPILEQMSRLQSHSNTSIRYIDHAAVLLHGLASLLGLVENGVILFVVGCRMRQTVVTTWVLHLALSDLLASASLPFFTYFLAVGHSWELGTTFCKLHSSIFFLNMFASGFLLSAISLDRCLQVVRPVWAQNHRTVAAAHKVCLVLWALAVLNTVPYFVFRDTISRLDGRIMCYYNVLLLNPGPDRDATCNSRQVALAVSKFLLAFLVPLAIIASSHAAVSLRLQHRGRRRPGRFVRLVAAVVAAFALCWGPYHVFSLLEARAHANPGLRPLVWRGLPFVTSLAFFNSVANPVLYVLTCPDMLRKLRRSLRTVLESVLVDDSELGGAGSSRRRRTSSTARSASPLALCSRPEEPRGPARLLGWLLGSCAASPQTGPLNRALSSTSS

In one assay the target is human DP2 (Homo sapiens (Human), UniProt Q9Y5Y4). Description: DP-2 Binding Inhibition Assay (3H-PGD2 binding to membranes of K562 cells expressing DP2). The settings on record: EC50 (nM) 4% HSA, inhibition of 3H-PGD2 binding, 4% HSA. A digest of the protocol:
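Radioligand filtration binding: ³H-PGD2 displacement from DP2-expressing K562 cell membranes, 60 min, room temperature, pH 7.4, under 0.1% BSA, 1% HSA or 4% HSA.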
In turn, `O=C(NCCc1ccccc1)c1ccc(Oc2cc3c(cc2Cl)C(C(=O)O)CCO3)cc1` (centres unmarked) [Example 12, Sodium 6-chloro-7-(4-(phenethylcarbamoyl)phenoxy)chroman-4-carboxylate] came in with an EC50 of 794 nM.

The same assay, now with this note: read-out: EC50 (Nm) 1% HSA; inhibition of 3H-PGD2 binding, 1% HSA.
Consider `O=C(NCCc1ccc(Cl)cc1)c1ccc(Oc2ccc3c(c2)OCCC3C(=O)O)cc1` (centres unmarked) [Example 128, 7-(4-(4-chlorophenyethylcarbamoyl)phenoxy)chroman-4-carboxylic acid], for which the EC50 was found to be 108 nM.

For `Cc1cc(C(=O)NCCc2ccc(Cl)cc2)ccc1Oc1cc2c(cc1C#N)C(C(=O)O)CCO2` (centres unmarked) [Example 129, 7-(4-(4-Chlorophenethylcarbamoyl)-2-methylphenoxy)-6-cyanochroman-4-carboxylic acid], the EC50 is 21.9 nM.

Turning to `N#Cc1cc2c(cc1Oc1ccc(C(=O)Nc3ccc(Cl)c(Cl)c3)cc1)OCCC2C(=O)O` (centres unmarked) [Example 8, 6-Cyano-7-(4-(3,4-dichlorophenylcarbamoyl)phenoxy)chroman-4-carboxylic acid], the EC50 was found to be 16 nM.

In the case of `COc1cc(C2CC2)ccc1CCNC(=O)c1ccc(Oc2cc3c(cc2Cl)C(C(=O)O)CCO3)cc1` (centres unmarked) [Example 36, Sodium 6-chloro-7-(4-(4-cyclopropyl-2-methoxyphenethylcarbamoyl)phenoxy)chroman-4-carboxylate], the EC50 stood at 17.3 nM.

`O=C(NCCc1ccc(Cl)cc1)c1ccc(Oc2cc(Cl)c3c(c2)OCCC3C(=O)O)cc1` (centres unmarked) [Example 218, 5-chloro-7-(4-(4-chlorophenethylcarbamoyl)phenoxy)chroman-4-carboxylic acid]: the EC50 stood at 144 nM.

Still in this assay, the particulars now being: read-out: EC50 (nM) 4% HSA; inhibition of 3H-PGD2 binding, 4% HSA.
For the compound `O=C(NCCc1ccc(Cl)cc1)c1ccc(Oc2ccc3c(c2)OCCC3C(=O)O)cc1` (centres unmarked) [Example 128, 7-(4-(4-chlorophenyethylcarbamoyl)phenoxy)chroman-4-carboxylic acid], the EC50 is 980 nM.

Consider `COc1cccc(CCNC(=O)c2ccc(Oc3cc4c(cc3Cl)C(C(=O)O)CCO4)cc2)c1` (centres unmarked) [Example 143, Sodium 6-chloro-7-(4-(3-methoxyphenethylcarbamoyl)phenoxy)chroman-4-carboxylate], for which the EC50 was 1010 nM.

With `Cc1ccc(C2CCC(NC(=O)c3ccc(Oc4cc5c(cc4Cl)C(C(=O)O)CCO5)cc3)C2)cc1` (centres unmarked) [Example 166, 6-Chloro-7-(4-(3-p-tolylcyclopentylcarbamoyl)phenoxy)chroman-4-carboxylic acid], the EC50 was 272 nM.

In the case of `O=C(NCCc1cccc2c1OCO2)c1ccc(Oc2cc3c(cc2Cl)C(C(=O)O)CCO3)cc1` (centres unmarked) [Example 193, sodium 7-(4-(2-(benzo[d][1,3]dioxol-4-yl)ethylcarbamoyl)phenoxy)-6-chlorochroman-4-carboxylate], the EC50 was determined as 640 nM.

In the case of `O=C(NCCc1ccc(Cl)cc1)c1ccc(Oc2cc3c(cc2C2CC2)C(C(=O)O)CCO3)cc1` (centres unmarked) [Example 41, Sodium 7-(4-(4-chlorophenethylcarbamoyl)phenoxy)-6-cyclopropylchroman-4-carboxylate], the EC50 came out at 150 nM.

With `O=C(NCCc1ccc(-c2ccccc2)cc1Cl)c1ccc(Oc2cc3c(cc2Cl)C(C(=O)O)CCO3)cc1` (centres unmarked) [Example 31, Sodium 6-chloro-7-(4-(2-(3-chlorobiphenyl-4-yl)ethylcarbamoyl)phenoxy)chroman-4-carboxylate], the EC50 worked out at 91.4 nM.

For `O=C(NCCc1ccccc1-c1ccc(Cl)cc1)c1ccc(Oc2cc3c(cc2Cl)C(C(=O)O)CCO3)cc1` (centres unmarked) [Example 94, Sodium 6-chloro-7-(4-(2-(4′-chlorobiphenyl-2-yl)ethylcarbamoyl)phenoxy)chroman-4-carboxylate], the concentration for a half-maximal effect (EC50) came out at 287 nM.

For `COc1cc(Cl)c(CCNC(=O)c2ccc(Oc3cc4c(cc3Cl)C(C(=O)O)CCO4)cc2)c(OC)c1` (centres unmarked) [Example 226, 6-chloro-7-(4-(2-chloro-4,6-dimethoxyphenethylcarbamoyl)phenoxy)chroman-4-carboxylic acid], the EC50 was found to be 88.5 nM.

For `O=C(NCCCCc1ccccc1Cl)c1ccc(Oc2cc3c(cc2Cl)C(C(=O)O)CCO3)cc1` (centres unmarked) [Example 17, Sodium 6-chloro-7-(4-(4-(2-chlorophenyl)butylcarbamoyl)phenoxy)chroman-4-carboxylate], the concentration for a half-maximal effect (EC50) amounted to 395 nM.

With `O=C(NCCc1cccc2ccccc12)c1ccc(Oc2cc3c(cc2Cl)C(C(=O)O)CCO3)cc1` (centres unmarked) [Example 86, Sodium 6-chloro-7-(4-(2-(naphthalen-1-yl)ethylcarbamoyl)phenoxy)chroman-4-carboxylate], the EC50 came out at 126 nM.

As for `COc1ccc(OC)c(CCNC(=O)c2ccc(Oc3cc4c(cc3Cl)C(C(=O)O)CCO4)cc2)c1` (centres unmarked) [Example 88, Sodium 6-chloro-7-(4-(2,5-dimethoxyphenethylcarbamoyl)phenoxy)chroman-4-carboxylate], the EC50 is 203 nM.

Regarding `O=C(NCCc1ccc(C2CC2)cc1Cl)c1ccc(Oc2cc3c(cc2Cl)C(C(=O)O)CCO3)cc1` (centres unmarked) [Example 30, Sodium 6-chloro-7-(4-(2-chloro-4-cyclopropylphenethylcarbamoyl)phenoxy)chroman-4-carboxylate], the EC50 was found to be 301 nM.

For the compound `O=C(NCCc1ccc2ccccc2c1)c1ccc(Oc2cc3c(cc2Cl)C(C(=O)O)CCO3)cc1` (centres unmarked) [Example 87, Sodium 6-chloro-7-(4-(2-(naphthalen-2-yl)ethylcarbamoyl)phenoxy)chroman-4-carboxylate], the EC50 was 234 nM.

Consider `O=C(NCCCc1ccccc1)c1ccc(Oc2cc3c(cc2Cl)C(C(=O)O)CCO3)cc1` (centres unmarked) [Example 78, Sodium 6-chloro-7-(4-(3-phenylpropylcarbamoyl)phenoxy)chroman-4-carboxylate], for which the EC50 was 681 nM.

On to `O=C(NCCc1ccc(Br)cc1)c1ccc(Oc2cc3c(cc2Cl)C(C(=O)O)CCO3)cc1` (centres unmarked) [Example 23, Sodium 7-(4-(4-bromophenethylcarbamoyl)phenoxy)-6-chlorochroman-4-carboxylate], for which the EC50 stood at 327 nM.

In the case of `COc1cc(C2CC2)ccc1CCNC(=O)c1ccc(Oc2cc3c(cc2Cl)C(C(=O)O)CCO3)cc1` (centres unmarked) [Example 36, Sodium 6-chloro-7-(4-(4-cyclopropyl-2-methoxyphenethylcarbamoyl)phenoxy)chroman-4-carboxylate], the EC50 was determined as 93 nM.

As for `O=C(NCCc1ccc(-c2ccccc2)cc1)c1ccc(Oc2cc3c(cc2Cl)C(C(=O)O)CCO3)cc1` (centres unmarked) [Example 59], the EC50 was 158 nM.

For the compound `O=C(NCCCCc1ccccc1)c1ccc(Oc2cc3c(cc2Cl)C(C(=O)O)CCO3)cc1` (centres unmarked) [Example 13, Sodium 6-chloro-7-(4-(4-phenylbutylcarbamoyl)phenoxy)chroman-4-carboxylate], the EC50 came out at 405 nM.

Take `O=C(NCCc1ccc(C(F)(F)F)cc1Cl)c1ccc(Oc2cc3c(cc2Cl)C(C(=O)O)CCO3)cc1` (centres unmarked) [Example 98, Sodium 6-chloro-7-(4-(2-chloro-4-(trifluoromethyl)phenethylcarbamoyl)phenoxy)chroman-4-carboxylate]: the EC50 is 193 nM.

With `O=C(NC1CCC(c2cccc(Cl)c2)C1)c1ccc(Oc2cc3c(cc2Cl)C(C(=O)O)CCO3)cc1` (centres unmarked) [Example 167, 6-Chloro-7-(4-(3-(3-chlorophenyl)cyclopentylcarbamoyl)phenoxy)chroman-4-carboxylic acid], the EC50 is 179 nM.

Regarding `CCc1ccccc1CCNC(=O)c1ccc(Oc2cc3c(cc2Cl)C(C(=O)O)CCO3)cc1` (centres unmarked) [Example 196, sodium 6-chloro-7-(4-(2-ethylphenethylcarbamoyl)phenoxy)chroman-4-carboxylate], the EC50 is 269 nM.

With `CCOc1cc(OC)ccc1CCNC(=O)c1ccc(Oc2cc3c(cc2Cl)C(C(=O)O)CCO3)cc1` (centres unmarked) [Example 228, 6-chloro-7-(4-(2-ethoxy-4-methoxyphenethylcarbamoyl)phenoxy)chroman-4-carboxylic acid], the EC50 stood at 88.9 nM.

As to `COc1cc(Cl)c(CCNC(=O)c2ccc(Oc3cc4c(cc3Cl)C(C(=O)O)CCO4)cc2)c(Cl)c1` (centres unmarked) [Example 224, 6-chloro-7-(4-(2,6-dichloro-4-methoxyphenethylcarbamoyl)phenoxy)chroman-4-carboxylic acid], the EC50 amounted to 373 nM.

Source of the values: US9556139B2, “6-substituted phenoxychroman carboxylic acid derivatives” (Array BioPharma Inc., priority 2008, dated 2017).
